The numbers were not newly measured in patent US20070219271A1, “Pharmaceutical Compositions Containing Pufa And At Least One Of An Immunosuppressive Agent Or An Antineoplastic Agent” (Tillotts Pharma AG, priority 2004, published 2007), which cites them from elsewhere.

The test system of this data set is human squamous carcinoma line and multidrug-resistant and carboplatin-resistant variants. The conditions noted are these: cells pre-treated with GLA.

Take `CCCCC/C=C\C/C=C\C/C=C\CCCCC(=O)O` [GLA, gamma-linoleic acid]: the “enhancement of vincristine toxicity” value is “up to 40%”. Further, the “enhancement of toxicity of carboplatin” value (depending on the concentration of GLA, human squamous carcinoma and carboplatin-resistant variant cell lines) is reported as > 50%.
